The source of these data is patent US20010046986A1, “Method for controlling flies” (priority 2000, published 2001).

This experiment relates to Musca domestica. To be noted: female Musca domestica imagoes of a sensitive strain; oral, 1 μL of 50 ppm liquid composition in 5% granulated sugar solution (0.05 μg clothianidin); after 24 hours. How it is done:
Insecticidal test by oral administration to Musca domestica
A clothianidin solution in alcohol was diluted with 5% granulated sugar solution to prepare a 50 ppm liquid composition of clothianidin.
Female Musca domestica imagoes (ten flies) of a sensitive strain kept without water for 3˜4 hours were anesthetized and lightly fixed to a pressure sensitive adhesive sheet which was cut into strips. After the test insects came out from the anesthetic, 1 μL of the liquid composition (containing 0.05 μg of clothianidin) was released from an injection needle attached to a micro dropper so that the test insects inhaled the composition.

The structures appear in SMILES notation.

As to `CN/C(=N\[N+](=O)[O-])NCc1cnc(Cl)s1` [clothianidin, (E)-1-(2-chloro-1,3-thiazol-5-ylmethyl)-3-methyl-2-nitroguanidine], the “insecticidal effect (flies dead)” value is listed as “all flies were dead”.
